Experimental data reported in paper PMC5623054, “Cloning and Functional Characterization of Octβ2-Receptor and Tyr1-Receptor in the Chagas Disease Vector, Rhodnius prolixus” (Frontiers in Physiology, 2017).

What was measured:
Type in all cases: cell-based
RhoprTyr1-R [1] = target: T1, RhoprTyr1-R (Rhodnius prolixus, UniProt A0A291L8I9); assay: aequorin bioluminescence Ca2+ assay in transfected HEK293/CNG cells, dose-response (agonist)
T1 construct: full ORF (455 amino acids; GenBank MF377527) transiently expressed in HEK293/CNG cells
T1 sequence (A0A291L8I9 1-455): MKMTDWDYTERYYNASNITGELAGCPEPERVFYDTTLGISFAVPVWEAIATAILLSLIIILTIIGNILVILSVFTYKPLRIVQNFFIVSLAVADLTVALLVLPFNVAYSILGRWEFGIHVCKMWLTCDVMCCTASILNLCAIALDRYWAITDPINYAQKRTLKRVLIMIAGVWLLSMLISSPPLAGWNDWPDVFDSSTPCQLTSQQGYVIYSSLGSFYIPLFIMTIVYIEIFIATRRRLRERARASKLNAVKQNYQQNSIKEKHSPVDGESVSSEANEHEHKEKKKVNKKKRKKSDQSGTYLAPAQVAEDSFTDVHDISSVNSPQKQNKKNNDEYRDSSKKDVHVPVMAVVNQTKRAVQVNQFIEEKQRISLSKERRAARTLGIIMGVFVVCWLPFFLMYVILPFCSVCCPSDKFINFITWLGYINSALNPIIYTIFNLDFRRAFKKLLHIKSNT

RhoprOctβ2-R [2] = target: T2, RhoprOctβ2-R (Rhodnius prolixus, UniProt A0A291L8J3); assay: aequorin bioluminescence Ca2+ assay in transfected HEK293/CNG cells, dose-response (partial agonist)
T2 construct: full ORF (447 amino acids; GenBank MF377526) transiently expressed in HEK293/CNG cells
T2 sequence (A0A291L8J3 1-447): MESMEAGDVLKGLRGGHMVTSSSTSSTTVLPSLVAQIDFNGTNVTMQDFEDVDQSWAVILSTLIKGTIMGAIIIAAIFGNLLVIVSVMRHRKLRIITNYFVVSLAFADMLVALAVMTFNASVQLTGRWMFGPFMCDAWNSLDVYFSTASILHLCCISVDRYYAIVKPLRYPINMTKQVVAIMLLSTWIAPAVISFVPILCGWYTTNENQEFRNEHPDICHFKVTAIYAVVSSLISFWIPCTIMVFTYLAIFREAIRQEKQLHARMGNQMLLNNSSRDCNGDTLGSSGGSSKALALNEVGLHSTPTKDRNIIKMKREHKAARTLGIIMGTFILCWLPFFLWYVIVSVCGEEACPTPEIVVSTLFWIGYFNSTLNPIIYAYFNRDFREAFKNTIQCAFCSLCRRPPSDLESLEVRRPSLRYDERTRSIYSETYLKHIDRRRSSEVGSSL

RhoprOctβ2-R [3] = target: T2, RhoprOctβ2-R; assay: partial antagonism of octopamine-induced aequorin luminescence in HEK293/CNG cells, single dose […]
RhoprOctβ2-R [4] = target: T2, RhoprOctβ2-R; assay: antagonism of octopamine-induced aequorin luminescence in HEK293/CNG cells, single dose […]
RhoprOctβ2-R [5] = target: T2, RhoprOctβ2-R; assay: aequorin bioluminescence Ca2+ assay in transfected HEK293/CNG cells, dose-response (full agonist)
RhoprTyr1-R [6] = target: T1, RhoprTyr1-R; assay: antagonism of tyramine-induced aequorin luminescence in HEK293/CNG cells, single dose […]

Compound: NCCc1ccc(O)cc1 [TA, tyramine]
- EC50 (RhoprTyr1-R [1]): 51.7 nM
- EC50 (RhoprOctβ2-R [2]): 3850 nM

Compound: CCN(CC)CCNC(=O)c1cc(Cl)c(N)cc1OC [metoclopramide]
- partial antagonism of octopamine-induced aequorin luminescence in HEK293/CNG cel (RhoprOctβ2-R [3]): RhoprOctβ2-R was antagonized by phentolamine > gramine > metoclopramide

Compound: CN(C)Cc1c[nH]c2ccccc12 [gramine]
- antagonism of octopamine-induced aequorin luminescence in HEK293/CNG cells, sing (RhoprOctβ2-R [4]): Phentolamine and gramine significantly reduced octopamine-induced receptor activation

Compound: NCC(O)c1ccc(O)cc1 (stereo not shown) [OA, octopamine]
- EC50 (RhoprOctβ2-R [5]): 367 nM
- EC50 (RhoprTyr1-R [1]): 6880 nM

Compound: CC(COc1ccccc1)N(CCCl)Cc1ccccc1 (stereo not shown) [phenoxybenzamine]
- antagonism of tyramine-induced aequorin luminescence in HEK293/CNG cells, single (RhoprTyr1-R [6]): notably yohimbine and phenoxybenzamine, reduced the tyramine-induced activation of the RhoprTyr1-R
